{"source": "patent US8946160B2", "about": "“Nitric oxide amino acid esters for improving vascular circulation, and prophylaxis or treatment of a condition associated with impaired blood circulation” (Oral Delivery Technology Ltd., priority 2010, dated 2015)", "origin": "cited, not measured here", "data": [{"smiles": "O=[N+]([O-])OCC(CO[N+](=O)[O-])O[N+](=O)[O-]", "note": "[nitroglycerin]", "values": [{"measurement": "maximum shelf life of a product containing nitroglycerin", "value": "about six"}]}]}
